Experiments:
FGFR2(N549H) = biological target: T1, FGFR2(N549H) (Homo sapiens, UniProt P21802, N549H); assay: fluorescent ELISA assay for inhibitors of FGFR2 kinase; type: biochemical; details: 37 μM Pyk2 substrate, 12.5 μM ATP, 0.5 μM FGFR2 enzyme, 60 minutes
T1 construct: purchased Millipore 14-742
Method: The enzymatic assays described herein are conducted according to the following procedures from commercially available reagents. In one, non limiting, example, a fluorescent ELISA assay is used to identify and characterize inhibitors of FGFR2 kinase as described herein. This heterogeneous assay utilizes a biotinylated peptide with a tyrosine motif as a substrate and an anti-phospho-tyrosine antibody to measure phosphorylation of the substrate. The reaction is initiated by adding the test compound, 37 μM Pyk2 substrate (Midwest Biotech, Cat. #MBT2383), 12.5 μM ATP (Roche, Cat. #11 140 965 001) and 0.5 μM FGFR2 enzyme (Millipore, Cat. #14-742) sequentially to a non-binding polypropylene V-well plate. All reagents are in an assay buffer consisting of: 50 mM Tris-HCL, 0.02 mg/ml BSA, 10 mM MgCl2, 0.1 mM Na3VO4, 1 mM EGTA, 75 μM ATP, 0.01% NP-40, 2 mM DTT and 10% glycerol. The reaction is incubated for 60 minutes. As the reaction proceeds, FGFR2 phosphorylates tyrosines in the peptide. The reaction mixture is then moved to a blocked streptavidin-coated Nunc Maxisorb plate (coated with 100 ng streptavidin from Pierce (Cat. #15-124) per well), allowing for the capture of the biotinylated peptide. Peptides are captured for 30 minutes at room temperature, the phosphorylation of peptides continues during this phase. The reaction is stopped by washing the streptavidin-coated plate 6 times with TBST. Phosphorylated peptide is detected by adding anti-phospho-tyrosine antibody (Cell Signaling, Cat. #9411, diluted 1:3000) to the streptavidin-coated plate. Unbound anti-phospho-tyrosine antibody is removed by washing the streptavidin-coated plate 6 times with TBST. Secondary detection is performed using alkaline phosphatase tagged goat anti-mouse antibody (Pierce, Cat. #31320, diluted 1:4000) for one hour. Unbound secondary antibody is removed by washing the streptavidin-coated plate 6 times with TBST. The fluorescent readout is initiated by adding to the streptavidin-coated plate Promega Attophos substrate (Promega, Cat. #S1000, dilution=6 mg/10 ml), which, when dephosphorylated by alkaline phosphatase, emits a fluorescent signal of 595 nm in wavelength when excited by a signal of 400 nm in wavelength. The reading of the 595 nm signal is done on the Perkin Elmer Envision system. Compounds which prevent FGFR2 from phosphorylating the peptide result in a lower fluorescent signal. The 595 nm fluorescent signal is directly proportional to the activity of FGFR2. Thus, the inhibition of FGFR2 by compounds is monitored by the decrease in the 595 nm fluorescent signal.

DLD-1 cells = assay: MTS assay, inhibition of cell growth; type: cell-based; details: Homo sapiens, compound at 10 μM, 72 hours
Method: (§1) MDA-MB-231, DLD-1, Kato III NCI-H1299, PACA-2 cells, were maintained at 37° C., 5% CO2 in DMEM media supplemented with 10% fetal bovine serum, penicillin/streptomycin and fungizone (Invitrogen). Cells were seeded into 96-well tissue culture plates at 3000 per well and cultured at 37° C. for 18 hours. Test compounds were dissolved and diluted to 300× in DMSO then further diluted 1:40 in DMEM before addition to cells (1:7.5 dilution). Cells were incubated with test compounds for 72 hours followed by incubation with tetrazolium compound (3-(4,5-dimethylthiazol-2-yl)-5-(3-carboxymethoxyphenyl)-2-(4-sulfophenyl)-2H-tetrazolium, inner salt; MTS) and the electron coupling reagent, phenazine methosulfate (PMS) for 4 hours. […] The ability of compounds to inhibit cell growth in this assay is correlated with the reduction of dehydrogenase enzyme activity found in metabolically active cells. The measurement of the absorbance of the formazan was assessed using an ENVISION™ (Perkin Elmer) microplate reader at 492 nm.

NCI-H1299 cells = assay: MTS assay, inhibition of cell growth; type: cell-based; details: Homo sapiens, compound at 10 μM, 72 hours
Method: as §1

PACA-2 cells = assay: MTS assay, inhibition of cell growth; type: cell-based; details: compound at 10 μM, 72 hours
Method: as §1

Kato III cells = assay: MTS assay, inhibition of cell growth; type: cell-based; details: Homo sapiens, compound at 10 μM, 72 hours
Method: as §1

MDA-MB-231 cells = assay: MTS assay, inhibition of cell growth; type: cell-based; details: Homo sapiens, compound at 10 μM, 72 hours
Method: as §1

T1 sequence (P21802 22-821 N549H): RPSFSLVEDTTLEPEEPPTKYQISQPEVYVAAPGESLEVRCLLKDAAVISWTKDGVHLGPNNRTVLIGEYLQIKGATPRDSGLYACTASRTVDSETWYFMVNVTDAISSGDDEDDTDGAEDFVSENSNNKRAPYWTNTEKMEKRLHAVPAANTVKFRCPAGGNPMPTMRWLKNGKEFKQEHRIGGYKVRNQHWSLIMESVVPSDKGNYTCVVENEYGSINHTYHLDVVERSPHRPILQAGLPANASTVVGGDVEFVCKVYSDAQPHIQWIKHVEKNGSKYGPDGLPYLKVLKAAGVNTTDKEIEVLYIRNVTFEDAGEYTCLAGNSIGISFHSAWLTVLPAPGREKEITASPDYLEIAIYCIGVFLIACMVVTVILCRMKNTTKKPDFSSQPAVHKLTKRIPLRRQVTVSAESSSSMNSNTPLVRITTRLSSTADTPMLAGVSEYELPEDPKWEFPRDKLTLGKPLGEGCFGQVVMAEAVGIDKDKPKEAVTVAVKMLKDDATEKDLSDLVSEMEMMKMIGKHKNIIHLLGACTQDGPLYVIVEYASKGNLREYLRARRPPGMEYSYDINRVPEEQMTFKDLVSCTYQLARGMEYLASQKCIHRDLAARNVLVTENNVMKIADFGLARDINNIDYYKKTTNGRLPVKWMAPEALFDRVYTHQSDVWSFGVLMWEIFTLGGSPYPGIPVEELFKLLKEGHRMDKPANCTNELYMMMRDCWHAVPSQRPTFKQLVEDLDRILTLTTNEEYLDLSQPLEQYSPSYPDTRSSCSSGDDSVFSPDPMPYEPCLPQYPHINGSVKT

| SMILES | IC50 (FGFR2(N549H)) [µM] | inhibition at 10 µM (DLD-1 cells) [%] | inhibition at 10 µM (NCI-H1299 cells) [%] | inhibition at 10 µM (PACA-2 cells) [%] | inhibition at 10 µM (Kato III cells) [%] | inhibition at 10 µM (MDA-MB-231 cells) [%] |
| --- | --- | --- | --- | --- | --- | --- |
| Clc1ccc(C2Cc3cnc4[nH]ncc4c3-c3ccccc32)c(Cl)c1 (stereo not shown) [7-(2,4-dichlorophenyl)-6,7-dihydro-3H-benzo[f]pyrazolo[3,4-c]isoquinoline] | 2.51 | – | – | – | – | – |
| Clc1ccc(C2Cc3cnc4[nH]ncc4c3-c3ccccc32)cc1Cl (stereo not shown) [7-(3,4-dichlorophenyl)-6,7-dihydro-3H-benzo[f]pyrazolo[3,4-c]isoquinoline] | 20.8 | – | – | – | – | – |
| Fc1ccc(C2Cc3cnc4[nH]ncc4c3-c3ccccc32)cc1 (stereo not shown) [7-(4-fluorophenyl)-6,7-dihydro-3H-benzo[f]pyrazolo[3,4-c]isoquinoline] | 4.07 | – | – | – | – | – |
| c1ccc(C2Cc3cnc4[nH]ncc4c3-c3ccccc32)cc1 (stereo not shown) [7-phenyl-6,7-dihydro-3H-benzo[f]pyrazolo[3,4-c]isoquinoline] | 0.224 | – | – | – | – | – |
| Cc1cc(C)c2c(c1)-c1c(cnc3[nH]ncc13)CC2 [8,10-dimethyl-6,7-dihydro-3H-benzo[f]pyrazolo[3,4-c]isoquinoline] | 6.81 | – | – | – | – | – |
| FC(F)(F)c1cccc(CNc2ncc3c(n2)CCc2cnc4[nH]ncc4c2-3)c1 [N-[3-(trifluoromethyl)benzyl]-6,7-dihydro-3H-pyrazolo[4′,3′:5,6]pyrido[4,3-f]quinazolin-9-amine] | – | 75 to 100 | 75 to 100 | 75 to 100 | 75 to 100 | 75 to 100 |
| CN(C)c1ccc(NC(=O)N2CCc3c(cnc4[nH]ncc34)C2)cc1 [N-[4-(dimethylamino)phenyl]-3,6,8,9-tetrahydro-7H-pyrazolo[3,4-c][2,7]naphthyridine-7-carboxamide] | – | 75 to 100 | 75 to 100 | 75 to 100 | 75 to 100 | 75 to 100 |
| O=C(Nc1ccccc1)N1CCc2c(cnc3[nH]nc(-c4cccc(C(F)(F)F)c4)c23)C1 [N-phenyl-1-[3-(trifluoromethyl)phenyl]-3,6,8,9-tetrahydro-7H-pyrazolo[3,4-c][2,7]naphthyridine-7-carboxamide] | – | 75 to 100 | 75 to 100 | 75 to 100 | 75 to 100 | 75 to 100 |
| CC(C)(C)NC1CCc2c(cnc3[nH]ncc23)C1 (stereo not shown) [N-tert-butyl-6,7,8,9-tetrahydro-3H-pyrazolo[3,4-c]isoquinolin-7-amine] | – | 75 to 100 | 75 to 100 | 75 to 100 | 75 to 100 | 75 to 100 |
| O=C(NCCN1CCOCC1)c1cccc(NC(=O)N2CCc3c(cnc4[nH]ncc34)C2)c1 [N-{3-[(2-morpholin-4-ylethyl)carbamoyl]phenyl}-3,6,8,9-tetrahydro-7H-pyrazolo[3,4-c][2,7]napthyridine-7-carboxamide] | – | 75 to 100 | 75 to 100 | 75 to 100 | 75 to 100 | 75 to 100 |
| Fc1ccc(C2Cc3cnc4[nH]ncc4c3-c3ccccc32)cc1 (stereo not shown) [drawing 558, 7-(4-fluorophenyl)-6,7-dihydro-3H-benzo[f]pyrazolo[3,4-c]isoquinoline] | – | 75 to 100 | 25 to 49 | 75 to 100 | 50 to 74 | 75 to 100 |
| O=S(=O)(NC1CCc2c(cnc3[nH]ncc23)C1)c1ccccc1 (stereo not shown) [drawing 563, N-(6,7,8,9-tetrahydro-3H-pyrazolo[3,4-c]isoquinolin-7-yl)benzenesulfonamide] | – | 75 to 100 | 25 to 49 | 75 to 100 | 75 to 100 | 75 to 100 |
| CC(C)(C)OC(=O)N1CCc2c(cnc3[nH]ncc23)C1 [drawing 579, tert-butyl 3,6,8,9-tetrahydro-7H-pyrazolo[3,4-c][2,7]naphthyridine-7-carboxylate] | – | 75 to 100 | 75 to 100 | 75 to 100 | 75 to 100 | 75 to 100 |
| Cc1nc(-c2cccc(NC(=O)N3CCc4c(cnc5[nH]nc(Br)c45)C3)c2)cs1 [drawing 580, 1-bromo-N-[3-(2-methyl-1,3-thiazol-4-yl)phenyl]-3,6,8,9-tetrahydro-7H-pyrazolo[3,4-c][2,7]naphthyridine-7-carboxamide] | – | 75 to 100 | 50 to 74 | 25 to 49 | 75 to 100 | < 24 |
| O=C(c1ccccc1)c1c[nH]c2ncnc(N3CCc4c(cnc5[nH]nc(Br)c45)C3)c12 [drawing 582] | – | 50 to 74 | 75 to 100 | 75 to 100 | 75 to 100 | 50 to 74 |
| CC(C)(C)OC(=O)N1CCc2c(cnc3[nH]nc(Br)c23)C1 [drawing 588, tert-butyl 1-bromo-3,6,8,9-tetrahydro-7H-pyrazolo[3,4-c][2,7]naphthyridine--7-carboxylate] | – | 75 to 100 | 75 to 100 | 75 to 100 | 75 to 100 | 75 to 100 |
| CCOC(=O)CNC(=O)N1CCc2c(cnc3[nH]ncc23)C1 [ethyl N-(3,6,8,9-tetrahydro-7H-pyrazolo[3,4-c][2,7]naphthyridin-7-ylcarbonyl)glycinate] | – | 75 to 100 | 75 to 100 | 75 to 100 | 75 to 100 | 75 to 100 |
| CC(C)(C)OC(=O)NCc1cccc(-c2n[nH]c3ncc4c(c23)CCN(C(=O)OC(C)(C)C)C4)c1 [tert-butyl 1-(3-{[(tert-butoxycarbonyl)amino]methyl}phenyl)-3,6,8,9-tetrahydro-7H-pyrazolo[3,4-c][2,7]naphthyridine--7-carboxylate] | – | 75 to 100 | 50 to 74 | 75 to 100 | 75 to 100 | 75 to 100 |
